Measured values as given in US9289461B2, “Reducing the risk of autoimmune disease” (Mead Johnson Nutrition (Asia Pacific) Pte. Ltd., priority 2013, dated 2016).

What follows are substances tested on STC-1 (intestinal endocrine cell line) (assay: CCK release from STC-1 intestinal endocrine cell line). Details: compared with a partial hydrolysate (Gentlease) or free amino acids.
Assay type: cell-based

Substance	CCK release from STC-1 cells
ALPMHIR [specific peptide from a casein hydrolysate of the present disclosure]	may stimulate CCK release
DISLLDAQSAPLR [specific peptide from a casein hydrolysate of the present disclosure]	may stimulate CCK release
GPVRGPFP [specific peptide from a casein hydrolysate of the present disclosure]	may stimulate CCK release
